In patent US6689567B1, “Method for assaying the function of FlaA1 and WbpM” (priority 1999, dated 2004):
“And” between values parts separate entries of the source, which are not always exact repeats. Equal entries are not always repeated.

Legend:
FlaA1 [1] = molecular target: T1, FlaA1 (Helicobacter pylori, UniProt O25511); assay: Substrate specificity of FlaA1 (catalysis with related sugar-nucleotides); type: biochemical
T1 construct: hexahistidine tag (N); made in house; host or cells: E. coli BL21(DE3)pLysS (pET23 derivative)
T1 sequence (O25511 whole entry): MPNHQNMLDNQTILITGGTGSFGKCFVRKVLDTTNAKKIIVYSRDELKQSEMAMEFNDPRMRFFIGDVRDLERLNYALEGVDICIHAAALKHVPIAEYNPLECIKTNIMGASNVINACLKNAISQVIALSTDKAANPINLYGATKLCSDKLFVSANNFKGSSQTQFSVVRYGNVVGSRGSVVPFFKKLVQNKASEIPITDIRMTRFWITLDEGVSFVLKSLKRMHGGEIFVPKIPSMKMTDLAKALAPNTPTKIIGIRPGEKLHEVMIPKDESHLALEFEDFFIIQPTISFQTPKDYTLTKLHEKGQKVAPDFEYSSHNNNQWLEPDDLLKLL

FlaA1 [2] = molecular target: T1, FlaA1; assay: DMAB assay: enzymatic conversion of UDP-GlcNAc and UDP-GalNAc by FlaA1; type: biochemical; settings: incubation with FlaA1, 37° C., 20 mM Tris pH 7, 1 mM NAD+
Experimental: Reactions were performed with a total reaction volume of 35 μl at 37° C. in 20 mM Tris pH 7 in the presence of 1.5 mM substrate and 1 mM NAD^+. The reactions were stopped by acid hydrolysis of the UDP moiety of the substrate. For this purpose, the samples were acidified to pH 2 by addition of 7 μl of HCl 1 N, boiled for 6 min, and neutralised by addition of 7 μl of NaOH 1 N. The spectrophotometric quantification of GalNAc and GlcNAc using DMAB was performed as described by Creuzenet et al. 2000. Briefly summarized, 100 μl of 0.2 M sodium tetraborate pH 9.1 were added to 50 μl of quenched and neutralised enzymatic reactions and boiled immediately for 3 min. 40 μl of this mixture were transferred to a microtitration plate and 200 μl of DMAB reagent (1% in glacial acetic acid/HCl 99/1 v/v) were added. After incubation for 30 min at 37° C., the OD595 nm was recorded using a microplate reader. The assay was done in duplicate for each reaction tested. Standard curves were prepared using UDP-GlcNAc and UDP-GalNAc that were subjected to acid hydrolysis in the same conditions as described above.

FlaA1 [3] = molecular target: T1, FlaA1; assay: Capillary electrophoresis analysis of reaction products and kinetic parameters of FlaA1; type: biochemical; settings: for reaction products identified by capillary electrophoresis: sugar-nucleotide used as substrate of FlaA1
Experimental: The same reactions as above were prepared for capillary analysis using varying amounts of enzyme (440 or 54 ng) and 1 mM NAD^+ or not. The reaction mix was incubated for different reaction times. The specific conditions are indicated above. After incubation at 37° C. for the required amount of time, the reactions were quenched by boiling the sample for 6 min. Time course studies were performed with final sugar-nucleotide concentrations of 0.1 and 1.5 mM without NAD^+. Samples were quenched every 15 minutes for 2 h. […] Reactions were also performed using varying buffers such as 20 mM sodium phosphate or bis-tris-propane at pH 7, or 20 mM sodium acetate pH 6.5 and processed for CE analysis as described above.
Capillary electrophoresis (CE) analysis were performed using a P/ACE 5000 system (Beckman, Fullerton, Calif.) with UV detection as described before (Creuzenet et al. 2000). Briefly summarised, the running buffer was 25 mM sodium tetraborate pH 9.4. The capillary was bare silica 75 μm×57 cm, with a detector at 50 cm. The capillary was conditioned before each run by washing with 0.2 M NaOH for 2 min, water for 2 min, and running buffer for 2 min. Samples were introduced by pressure injection for 4 s and the separation was performed at 22 kV. Peak integration was done using the Beckman P/ACE Station software. Kinetic parameters were calculated by linear regression from Eadie-Hofstee plots.
The same reactions as above were prepared for capillary electrophoresis analysis and were quenched by boiling for 6 minutes without prior acidification. Capillary electrophoresis (CE) analysis was performed as described earlier (Creuzenet et al. 2000).

C4 epimerase WbpP = C4 epimerase WbpP (Pseudomonas aeruginosa, UniProt Q8KN66); settings: Creuzenet et al. 2000; cited from earlier work
Sequence of C4 epimerase WbpP (Q8KN66 whole entry): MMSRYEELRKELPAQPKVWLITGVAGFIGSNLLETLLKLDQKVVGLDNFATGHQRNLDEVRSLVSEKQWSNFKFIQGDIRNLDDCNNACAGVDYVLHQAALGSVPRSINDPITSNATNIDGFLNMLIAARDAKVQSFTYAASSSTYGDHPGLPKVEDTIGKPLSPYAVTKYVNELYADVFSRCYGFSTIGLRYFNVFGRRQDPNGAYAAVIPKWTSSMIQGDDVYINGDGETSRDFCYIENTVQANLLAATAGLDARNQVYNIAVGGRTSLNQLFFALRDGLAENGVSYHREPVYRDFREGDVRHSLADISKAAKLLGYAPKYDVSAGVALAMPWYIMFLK

Structure (SMILES) | catalysis by FlaA1 (substrate specificity) (FlaA1 [1]) | substrate conversion (decrease in OD595nm, DMAB assay) (FlaA1 [2]) | kcat (FlaA1 [3]; pH 7, 37° C., 12.8 pmol enzyme) | Km (FlaA1 [3]; pH 7, 37° C., 440 ng fresh enzyme, no NAD+, 20 min) | Vmax (FlaA1 [3]; pH 7, 37° C., 440 ng fresh enzyme, no NAD+, 20 min, total substrate conversion) | reaction products identified by capillary electrophoresis (FlaA1 [3]) | Km (C4 epimerase WbpP)
Nc1nc2c(ncn2[C@@H]2O[C@H](COP(=O)(O)OP(=O)(O)O[C@H]3O[C@H](CO)[C@@H](O)[C@H](O)[C@@H]3O)[C@@H](O)[C@H]2O)c(=O)[nH]1 [GDP-mannose] | Absence of catalysis |  |  |  |  |  | 
CC(=O)N[C@H]1[C@@H](OP(=O)(O)OP(=O)(O)OC[C@H]2O[C@@H](n3ccc(=O)[nH]c3=O)[C@H](O)[C@@H]2O)O[C@H](CO)[C@@H](O)[C@@H]1O [UDP-GlcNAc, UDP-N-acetylglucosamine] |  | ≤ 55% | 5.1 min⁻¹ and 5.1 ± 0.4 min⁻¹ | 159 µM | 0.065 nmol/min and 0.065 ± 0.006 nmol/min | two reaction products were identified | 220 µM
Cc1cn([C@H]2C[C@H](O)[C@@H](COP(=O)(O)OP(=O)(O)OC3O[C@H](CO)[C@@H](O)[C@H](O)[C@H]3O)O2)c(=O)[nH]c1=O (stereo partly drawn) [dTDP-D-glucose] | Absence of catalysis |  |  |  |  |  | 
CC(=O)N[C@H]1[C@@H](OP(=O)(O)OP(=O)(O)OC[C@H]2O[C@@H](n3ccc(=O)[nH]c3=O)[C@H](O)[C@@H]2O)O[C@H](CO)[C@H](O)[C@@H]1O [UDP-GalNAc, UDP-N-acetylgalactosamine] | can not proceed to catalysis | < 5% |  |  |  | no reaction products could be identified | 
